One test deals with T1, human CB2 receptors (Homo sapiens, UniProt P34972).
T1 construct: expressed in transfected cells; host or cells: HEK293
The experiment in a line: Human CB2 radioligand binding assay ([3H]CP-55,940 competition). The procedure:
The CB1 and CB2 radioligand binding assays described herein are utilized to determine the selectivity of compounds of the present invention for binding to CB2 relative to CB1 receptors.
(§1) HEK293 cells stably expressing human CB2 receptors were grown until a confluent monolayer was formed. Briefly, the cells were harvested and homogenized in TE buffer (50 mM Tris-HCl, 1 mM MgCl2, and 1 mM EDTA) using a polytron for 2×10 second bursts in the presence of protease inhibitors, followed by centrifugation at 45,000×g for 20 minutes. The final membrane pellet was re-homogenized in storage buffer (50 mM Tris-HCl, 1 mM MgCl2, and 1 mM EDTA and 10% sucrose) and frozen at −78° C. until used. Saturation binding reactions were initiated by the addition of membrane preparation (protein concentration of 5 μg/well for human CB2) into wells of a deep well plate containing ([^3H]CP-55,940 (120 Ci/mmol, a nonselective CB agonist commercially available from Tocris) in assay buffer (50 mM Tris, 2.5 mM EDTA, 5 mM MgCl2, and 0.5 mg/mL fatty acid free BSA, pH 7.4). After 90 min incubation at 30° C., binding reaction was terminated by the addition of 300 μL/well of cold assay buffer followed by rapid vacuum filtration through a UniFilter-96 GF/C filter plates (pre-soaked in 1 mg/mL BSA for 2 hours). The bound activity was counted in a TopCount using Microscint-20. Saturation experiments were conducted with twelve concentrations of [^3H]CP-55,940 ranging from 0.01 to 8 nM. Competition experiments were conducted with 0.5 nM [^3H]CP-55,940 and five concentrations of displacing ligands selected from the range of 0.01 nM to 10 μM. The addition of 10 μM unlabeled CP-55,940 (Tocris, Ellisville, Mo.) was used to assess nonspecific binding.

The target in another test is T2, rat CB2 receptors (Rattus norvegicus, UniProt Q9QZN9).
T2 construct: expressed in transfected cells; host or cells: HEK293
T2 sequence (Q9QZN9 1-360): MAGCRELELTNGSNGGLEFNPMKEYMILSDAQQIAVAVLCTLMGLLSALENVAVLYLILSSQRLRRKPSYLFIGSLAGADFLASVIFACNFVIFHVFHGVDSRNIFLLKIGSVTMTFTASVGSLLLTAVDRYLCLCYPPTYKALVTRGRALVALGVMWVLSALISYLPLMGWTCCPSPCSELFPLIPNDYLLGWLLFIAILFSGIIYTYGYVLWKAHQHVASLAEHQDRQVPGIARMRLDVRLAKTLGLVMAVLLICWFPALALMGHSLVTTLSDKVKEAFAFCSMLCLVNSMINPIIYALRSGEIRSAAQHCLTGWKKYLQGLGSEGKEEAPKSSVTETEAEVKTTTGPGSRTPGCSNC
In words: Rat CB2 radioligand binding assay ([3H]CP-55,940 competition). The procedure: as §1, with “expressing rat” for “expressing human”, “of 20” for “of 5”, “for rat” for “for human”, “containing [^3H]CP-55,940” for “containing ([^3H]CP-55,940”, “After 45” for “After 90”, “[…]” for “10 μM.”

Where [1] appears, read: HEK293 membranes, 0.5 nM [3H]CP-55,940, read-out: human CB2 Ki.
The mark [2] stands for this setting: HEK293 membranes, 0.5 nM [3H]CP-55,940, read-out: rat CB2 Ki.

Like-named read-outs stand apart in the source and are kept apart here.

These results are taken from patent US8492371B2, “Compounds as cannabinoid receptor ligands” (priority 2009, dated 2013).

T1 sequence (P34972 whole entry): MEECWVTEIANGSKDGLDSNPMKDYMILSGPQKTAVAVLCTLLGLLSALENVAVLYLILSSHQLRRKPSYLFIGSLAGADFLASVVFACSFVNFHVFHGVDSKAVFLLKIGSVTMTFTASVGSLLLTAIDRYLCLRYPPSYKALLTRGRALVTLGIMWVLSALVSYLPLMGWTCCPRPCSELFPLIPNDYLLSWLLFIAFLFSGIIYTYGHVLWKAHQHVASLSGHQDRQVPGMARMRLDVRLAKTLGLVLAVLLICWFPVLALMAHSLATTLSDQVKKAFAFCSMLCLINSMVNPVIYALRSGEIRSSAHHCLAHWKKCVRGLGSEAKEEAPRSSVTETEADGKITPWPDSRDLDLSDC

One may read the Ki as the equilibrium dissociation constant of an inhibitor or competing ligand from its target. For the molecule `Cn1c(C(C)(C)C)c/c(=N\C(=O)c2cc(C(F)(F)F)ccc2Br)n1C[C@H]1CCCO1` [Example 88, 2-bromo-N-{(3E)-5-tert-butyl-1-methyl-2-[(2R)-tetrahydrofuran-2-ylmethyl]-1,2-dihydro-3H-pyrazol-3-ylidene}-5-(trifluoromethyl)benzamide], the Ki was found to be 0.02 µM at human CB2 receptors and 0.0054 µM on rat CB2 receptors.

Turning to `Cn1c(C(C)(C)C)c/c(=N\C(=O)c2cc(Cl)ccc2F)n1C[C@H]1CCCO1` [Example 116], the Ki at human CB2 receptors was 0.026 µM; at rat CB2 receptors, 0.011 µM.

`CC(F)COc1ccc(C(F)(F)F)cc1C(=O)/N=c1\cc(C(C)(C)C)n(C)n1C[C@H]1CCCO1` (stereo partly drawn) [Example 40, N-{(3E)-5-tert-butyl-1-methyl-2-[(2R)-tetrahydrofuran-2-ylmethyl]-1,2-dihydro-3H-pyrazol-3-ylidene}-2-(2-fluoropropoxy)-5-(trifluoromethyl)benzamide]: the Ki on human CB2 receptors was found to be 0.032 µM; at rat CB2 receptors, 0.022 µM.

For the molecule `COc1ccc(C#N)cc1C(=O)/N=c1\cc(C(C)(C)C)n(C)n1C[C@H]1CCCO1` [Example 48], the Ki at human CB2 receptors (setting [1]) is 0.143 µM; on rat CB2 receptors it was 0.029 µM.

On to `Cn1c(C(C)(C)C)c/c(=N\C(=O)c2cccc(C#N)c2)n1C[C@H]1CCCO1` [Example 130, N-{(3E)-5-tert-butyl-1-methyl-2-[(2R)-tetrahydrofuran-2-ylmethyl]-1,2-dihydro-3H-pyrazol-3-ylidene}-3-cyanobenzamide], for which the Ki on human CB2 receptors was 0.072 µM; at rat CB2 receptors, 0.017 µM.

Take `Cn1c(C(C)(C)C)c/c(=N\C(=O)c2cc(Br)cc3c2OCC3)n1C[C@H]1CCCO1` [Example 60, 5-bromo-N-{(3E)-5-tert-butyl-1-methyl-2-[(2R)-tetrahydrofuran-2-ylmethyl]-1,2-dihydro-3H-pyrazol-3-ylidene}-2,3-dihydro-1-benzofuran-7-carboxamide]: the Ki came out at 0.066 µM on human CB2 receptors and 0.046 µM at rat CB2 receptors.

On to `CC(CCc1ccccc1)NC(=O)/N=c1\sc(C(C)(C)C)nn1C[C@H]1CCCO1` (stereo partly drawn) [Example 79, N-[(2Z)-5-tert-butyl-3-[(2R)-tetrahydrofuran-2-ylmethyl]-1,3,4-thiadiazol-2(3 H)-ylidene]-N′-(1-methyl-3-phenylpropyl)urea], for which the Ki was found to be 0.032 µM on human CB2 receptors and 0.011 µM on rat CB2 receptors.

As to `Cn1c(C(C)(C)C)c/c(=N\C(=O)c2cc(C(F)(F)F)ccc2OCC2CC(=O)C2)n1C[C@H]1CCCO1` [Example 17, N-{(3E)-5-tert-butyl-1-methyl-2-[(2R)-tetrahydrofuran-2-ylmethyl]-1,2-dihydro-3H-pyrazol-3-ylidene}-2-[(3-oxocyclobutyl)methoxy]-5-(trifluoromethyl)benzamide], the results for the Ki at human CB2 receptors (setting [1]) and at rat CB2 receptors were 0.23 µM and 0.058 µM, respectively.

For `Cn1c(C(C)(C)C)c/c(=N\C(=O)c2cc(C(F)(F)F)ccc2Cl)n1C[C@H]1CCCO1` [Example 54, N-{(3E)-5-tert-butyl-1-methyl-2-[(2R)-tetrahydrofuran-2-ylmethyl]-1,2-dihydro-3H-pyrazol-3-ylidene}-2-chloro-5-(trifluoromethyl)benzamide], the figures for the Ki at human CB2 receptors and on rat CB2 receptors were 0.017 µM and 0.0095 µM, respectively.

`Cn1c(C(C)(C)C)c/c(=N\C(=O)c2cc(O)cc(C(F)(F)F)c2)n1C[C@H]1CCCO1` [Example 103, N-{(3E)-5-tert-butyl-1-methyl-2-[(2R)-tetrahydrofuran-2-ylmethyl]-1,2-dihydro-3H-pyrazol-3-ylidene}-3-hydroxy-5-(trifluoromethyl)benzamide]: the inhibition constant Ki on human CB2 receptors was 0.016 µM; at rat CB2 receptors it was 0.0044 µM.

Regarding `CC(C)[C@@H](CO)NC(=O)/N=c1\sc(C(C)(C)C)nn1C[C@H]1CCCO1` [Example 84, N-[(2Z)-5-tert-butyl-3-[(2R)-tetrahydrofuran-2-ylmethyl]-1,3,4-thiadiazol-2(3 H)-ylidene]-N′-[(1S)-1-(hydroxymethyl)-2-methylpropyl]urea], the inhibition constant (Ki) worked out at 0.199 µM on human CB2 receptors and 0.073 µM at rat CB2 receptors.

Turning to `COc1ccc(Cl)cc1C(=O)/N=c1\cc(C(C)(C)C)n(C)n1C[C@H]1CCCO1` [Example 45, N-{(3E)-5-tert-butyl-1-methyl-2-[(2R)-tetrahydrofuran-2-ylmethyl]-1,2-dihydro-3H-pyrazol-3-ylidene}-5-chloro-2-methoxybenzamide], the Ki at human CB2 receptors was determined as 0.0082 µM; at rat CB2 receptors, 0.0049 µM.

Consider `COCCCOc1ccc(C(F)(F)F)cc1C(=O)/N=c1\cc(C(C)(C)C)n(C)n1C[C@H]1CCCO1` [Example 30, N-{(3E)-5-tert-butyl-1-methyl-2-[(2R)-tetrahydrofuran-2-ylmethyl]-1,2-dihydro-3H-pyrazol-3-ylidene}-2-(3-methoxypropoxy)-5-(trifluoromethyl)benzamide], for which the inhibition constant Ki at human CB2 receptors is 0.0038 µM; at rat CB2 receptors, 0.011 µM.

As for `COc1ccc(C(F)(F)F)cc1C(=O)/N=c1\c2c(n(C)n1C[C@H]1CCCO1)CCC2` [Example 32, 2-methoxy-N-[(3E)-1-methyl-2-[(2R)-tetrahydrofuran-2-ylmethyl]-1,4,5,6-tetrahydrocyclopenta[c]pyrazol-3(2H)-ylidene]-5-(trifluoromethyl)benzamide], the Ki came out at 0.261 µM at human CB2 receptors and 0.114 µM at rat CB2 receptors (setting [2]).

Consider `Cn1c(C(C)(C)C)c/c(=N\C(=O)c2cc(C(F)(F)F)ccc2/C=C/C(C)(C)O)n1C[C@H]1CCCO1` [Example 100, N-{(3E)-5-tert-butyl-1-methyl-2-[(2R)-tetrahydrofuran-2-ylmethyl]-1,2-dihydro-3H-pyrazol-3-ylidene}-2-[(1E)-3-hydroxy-3-methylbut-1-enyl]-5-(trifluoromethyl)benzamide], for which the Ki on human CB2 receptors came to 0.0032 µM; on rat CB2 receptors it was 0.0011 µM.

For the molecule `Cn1c(C(C)(C)C)c/c(=N\C(=O)c2cc(C(F)(F)F)ccc2CC(=O)OC(C)(C)C)n1C[C@H]1CCCO1` [Example 111, tert-butyl [2-[({(3E)-5-tert-butyl-1-methyl-2-[(2R)-tetrahydrofuran-2-ylmethyl]-1,2-dihydro-3H-pyrazol-3-ylidene}amino)carbonyl]-4-(trifluoromethyl)phenyl]acetate], the results for the Ki at human CB2 receptors and on rat CB2 receptors were 0.014 µM and 0.012 µM, respectively.

`CCOc1ccccc1C(=O)/N=c1\sc(C2CC2)nn1CC1CCCO1` (centres unmarked) [Example 3, N-[(2Z)-5-cyclopropyl-3-(tetrahydrofuran-2-ylmethyl)-1,3,4-thiadiazol-2(3H)-ylidene]-2-ethoxybenzamide]: the results for the Ki at human CB2 receptors (setting [1]) and at rat CB2 receptors were 0.114 µM and 0.071 µM, respectively.

Consider “N-({[(2Z)-5-tert-butyl-3-[(2R)-tetrahydrofuran-2-ylmethyl]-1,3,4-thiadiazol-2(3 H)-ylidene]amino}carbonyl)-L-phenylalaninamide [Example 80]”, for which the figures for the Ki at human CB2 receptors (setting [1]) and on rat CB2 receptors (setting [2]) were 0.028 µM and 0.038 µM, respectively.

Regarding `COc1ccc(Cl)cc1C(=O)/N=c1\sc(C(C)(C)C)nn1C[C@H]1COC(=O)N1` [Example 91, N-[(2Z)-5-tert-butyl-3-{[(4S)-2-oxo-1,3-oxazolidin-4-yl]methyl}-1,3,4-thiadiazol-2(3H)-ylidene]-5-chloro-2-methoxybenzamide], the Ki at human CB2 receptors (setting [1]) was 0.203 µM; on rat CB2 receptors, 0.03 µM.
